Assay results reported in patent US10266490B2, “Radioprotector compounds” (GEORGETOWN UNIVERSITY, priority 2012, dated 2019).

Assays:
[1] = test system: Hs578Bst human mammary epithelial cells; experiment: Clonogenic survival after radiation, Hs578Bst cells; type: cell-based; conditions: single dose of radiation (8-Gy); different concentrations
From the text: (§1) Following the indicated treatment(s), subconfluent proliferating cells were irradiated with different doses of ^137Cs γ-rays, harvested using trypsin, and plated at different densities in the absence or presence of DIM (as indicated) for colony formation (clonogenic survival) assays, as described in Zhang et al., Radiat Res, 161:667-674 (2004). Values of surviving fraction are means±SEMs of triplicate plates.
It was next tested whether DIM could protect cultured cells against radiation using clonogenic survival (colony formation) assays. Cells were exposed to DIM (0.3 μM) for 24-hr, irradiated, and harvested for colony formation assays. […]
Novel compounds were synthesized, which we have tested for their ability to protect cells against radiation in cultured cells. […] The cells were then irradiated using different doses of ^137Cs gamma rays, harvested, plated at different densities in the presence of DIM (0.3 μM) or vehicle, respectively, incubated for 14 days, and then counted for colony formation. […]
Cells at about 70-80% confluency were treated with vehicle (DMSO) or with the indicated compound (1 μM) for 24 hours, irradiated using different doses of ^137Cs gamma rays, harvested, plated at different densities in the presence of the compound (0.3 μM) or vehicle, respectively, incubated for 14 days, and then counted for colony formation. […]

[2] = test system: cultured cells (e.g., fibroblasts and epithelial cells); experiment: Radiation protection of cultured cells (clonogenic survival, various cell types); type: cell-based; conditions: for radiation protection relative to DIM: cultured cells
From the text: DIM, a metabolite of indole-3-carbinol and a proposed […], is a potent radiation protector in cultured cells and in rodents (mice and rats). The preparation of DIM that was used for most experiments was a microencapsulated form of DIM produced by BioResponse Nutrients (Boulder, Colo.). This microencapsulated form of DIM is designed with specific excipients (e.g., alpha-tocopherol succinate and phosphatidylcholine) to provide enhanced absorption and, therefore, enhanced bioavailability.
as §1
Novel compounds were synthesized, which we have tested for their ability to protect cells against radiation in cultured cells. […] None of these compounds are predicted to be free-radical scavengers or to be genotoxic. For reference, clonogenic radiation survival curves of cultured human mammary epithelial cells treated without or with DIM are shown in FIG. 6, panels A and B. In these studies, human mammary epithelial cells at about 70-80% of confluency were treated with DIM (0.3 μM) or vehicle ([…]) for 24 hours. The cells were then irradiated using different doses of ^137Cs gamma rays, harvested, plated at different densities in the presence of DIM (0.3 μM) or vehicle, respectively, incubated for 14 days, and then counted for colony formation. In FIG. 6, panels A and B, the clonogenic survival curves are shown using non-tumorigenic human mammary epithelial cell lines Hs5788st (panel B) or 184A1 (panel A). All cell survival values are means±SEMs of three replicate dishes.

ATM = experiment: Western blot of ATM signaling, 184A1 cells; type: cell-based, human; conditions: KU55933 10 μM
Experimental: FIG. 7A contains Western blots of subconfluent proliferating 184A1 human mammary epithelial cells exposed to DIM (0.3 μM) for different time intervals. Phosphorylated or total levels of ATM and of several different ATM substrate proteins were determined, as indicated. As a negative control, cells were treated with a selective inhibitor of ATM kinase activity (KU55933). FIG. 7B contains Western blots of 184A1 cells either untreated or treated with radiation (2-Gy of γ-radiation) and/or DIM (0.3 μM).
FIG. 8 contains a Western blot of subconfluent proliferating 184A1 human mammary epithelial cells exposed to DIM (0.3 μM) for different time intervals. Phosphorylated or total levels of ATM and of different DNA damage-response proteins were determined, as indicated.
Western blotting was performed. The primary antibodies were as follows: rabbit polyclonal anti-BRCA1 (sc-642, Santa Cruz); mouse monoclonal α-actin (sc-1616, Santa Cruz); anti-phospho-BRCA1 (S1387) [AB3257, Millipore (Billerica, Mass.)]; mouse monoclonal anti-ATM (sc-73615, Santa Cruz,); anti-phospho-ATM (S1981); anti-CHK2 (05-649, mouse monoclonal, Millipore); anti-phosph-CHK2 (T68) (ab32055, rabbit monoclonal, Abcam, Cambridge, Mass.); anti-p53 (ab2433, rabbit polyclonal, Abcam), and rabbit polyclonal anti-phospho-p53 (S15) (ab38497, Abcam).

[3] = test system: non-homologous end joining; experiment: DNA strand rejoining assay (linearized plasmid pEGFP-1, nuclear lysates); type: cell-based, human; conditions: 184A1 cells; inhibitor 10 μM
Experimental: FIGS. 11A and 11B show subconfluent proliferating 184A1 (FIG. 11A) or Hs578Bst (FIG. 11B) cells pre-treated±DIM (0.3 μM×24 hr); exposed to radiation (3-Gy) on ice; and subjected to neutral comet assays at different times post-irradiation. Values of % tail DNA are means±ranges of two determinations. […] At 24-hr after irradiation, cells were analyzed by flow cytometry for apoptosis, by measuring membrane redistribution of phosphatidylserine. The percentage of early and late apoptotic cells for non-irradiated control cells were: vehicle treated, 1.25% and 1.34%, and DIM-treated, 0.54% and 1.02%, respectively.
After the indicated cell treatment(s), nuclear lysates were prepared and aliquots of lysate (50 or 75 μg of nuclear protein) were tested for their ability to rejoin a plasmid (pEGFP-1, Clontech) that had been linearized using restriction enzyme SmaI. The reaction products were detected by Southern blotting, which was performed with a digoxigenin-labeled enhanced green fluorescent protein RNA probe. The percent rejoined plasmids […] was determined by densitometric quantification of the bands corresponding to rejoined and unrejoined plasmid.
Since ATM is known to have a major role in the repair of radiation-induced double-strand breaks (DSBs) of DNA, it was tested whether DIM could stimulate the repair of DSBs. The neutral comet assay is an electrophoretic method to measure DNA damage that reflects DSBs. The percent of tail DNA after irradiation reflects the number of DSBs. […] A DNA strand-rejoining assay based on the ability of cell nuclei to rejoin a linearized plasmid (pEGFP-1) was also performed, detected by Southern blotting. This assay reflects the process of non-homologous end joining (NEHJ).

Compound: CCOC(=O)C(O)(c1c(C)n(C)c2ccccc12)C(F)(F)F (stereo not drawn) [THW-5-85]
- potency of survival enhancement relative to DIM [1]: at least as potent as DIM
- radiation protection relative to DIM [2]: strong levels of radiation protection similar to, slightly greater than, or slightly less than DIM

Compound: c1ccc2c(Cc3c[nH]c4ccccc34)c[nH]c2c1 [crystalline DIM, 3,3′-diindolylmethane]
- radioprotection of cultured cells ([2]; ionizing radiation, clonogenic survival assays): work very well as radioprotectors

Compound: O=c1cc(-c2cccc3c2Sc2ccccc2S3)oc(N2CCOCC2)c1 [KU55933]
- effect on DIM-induced phosphorylations of ATM, BRCA1 and CHK2 (ATM): blocked
- effect on DIM-induced strand-rejoining [3]: blocked DIM-induced strand-rejoining

Compound: COc1ccc2c(c1)[nH]c1c(C)c(OS(=O)(=O)c3cccc4c(N(C)C)cccc34)ccc12 [KED-4-69]
- radiation protection relative to DIM [2]: strong levels of radiation protection similar to, slightly greater than, or slightly less than DIM
